According to ChEMBL document CHEMBL1201862, “PubChem BioAssay data set” (2004):
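A five-concentration, 48-hour dose response in 96-well plates underlies each endpoint, interpolated linearly between surrounding concentrations. Abbreviation: GI50, concentration required for 50% inhibition of growth.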 Active and inactive are the calls of the source. Rule as the data show it: active = GI50 up to about 1.1 µM and inactive = higher.

Legend:
Experiment in all cases: DTP human tumour cell line panel, 48 h
ACHN = tested on: ACHN
CAKI-1 = tested on: CAKI-1
COLO 205 = tested on: COLO 205
HOP-92 = tested on: HOP-92
HT-29 = tested on: HT-29
IGROV-1 = tested on: IGROV-1
KM12 = tested on: KM12
MOLT-4 = tested on: MOLT-4
NCI-H522 = tested on: NCI-H522
OVCAR-8 = tested on: OVCAR-8
SF-295 = tested on: SF-295
SK-MEL-28 = tested on: SK-MEL-28
SK-MEL-5 = tested on: SK-MEL-5
SN12C = tested on: SN12C
A498 = tested on: A498
SR = tested on: SR

Measured: GI50

O=C1CC(O)(c2ccccc2)C(c2ccccc2)=C1c1ccccc1 (stereo unspecified)
inactive: ACHN 38 µM | CAKI-1 31.3 µM | COLO 205 17.6 µM | HOP-92 17.3 µM | HT-29 42.8 µM | IGROV-1 44 µM | KM12 37.9 µM | MOLT-4 25.2 µM | NCI-H522 17.7 µM | OVCAR-8 47 µM | SF-295 32.4 µM | SK-MEL-28 39.8 µM | SK-MEL-5 39.6 µM | SN12C 38.6 µM

COc1cc2c(cc1OC)C(=O)Cc1ccc(OC)c(OC)c1CN(C)CC2
inactive: A498 11.9 µM | ACHN 27.7 µM | CAKI-1 > 100 µM | COLO 205 > 100 µM | HOP-92 20.5 µM | HT-29 > 100 µM | IGROV-1 > 100 µM | KM12 > 100 µM | MOLT-4 > 100 µM | NCI-H522 > 100 µM | OVCAR-8 > 100 µM | SK-MEL-28 > 100 µM | SK-MEL-5 > 100 µM | SN12C > 100 µM

O=C(c1ccc(NCN2C(=O)CCC2=O)cc1)c1ccc(NCN2C(=O)CCC2=O)cc1
inactive: ACHN > 100 µM | COLO 205 > 100 µM | HOP-92 > 100 µM | HT-29 > 100 µM | IGROV-1 > 100 µM | KM12 > 100 µM | MOLT-4 > 100 µM | NCI-H522 > 100 µM | OVCAR-8 > 100 µM | SF-295 > 100 µM | SK-MEL-28 > 100 µM | SK-MEL-5 > 100 µM | SN12C > 100 µM

COc1ccccc1/C=C1\C(=O)N(C(=O)Cc2ccccc2)N=C1C
inactive: ACHN > 100 µM | CAKI-1 > 100 µM | COLO 205 > 100 µM | HT-29 > 100 µM | KM12 > 100 µM | MOLT-4 > 100 µM | NCI-H522 > 100 µM | OVCAR-8 > 100 µM | SF-295 > 100 µM | SK-MEL-28 > 100 µM | SK-MEL-5 > 100 µM | SN12C > 100 µM | SR > 100 µM

COc1nc(=O)n(COC(CO)CN2C(=O)c3ccccc3C2=O)cc1Cc1cccc(OCc2ccccc2)c1 (stereo unspecified)
inactive: ACHN 23.7 µM | COLO 205 19.8 µM | HOP-92 21 µM | HT-29 34 µM | IGROV-1 24.8 µM | KM12 28.2 µM | MOLT-4 21.2 µM | OVCAR-8 34.5 µM | SF-295 22.1 µM | SK-MEL-28 17.2 µM | SK-MEL-5 15.7 µM | SN12C 22 µM

O=C(Cc1ccccc1)NN1C(=O)C(Cl)C1c1ccc([N+](=O)[O-])cc1 (stereo unspecified)
inactive: ACHN > 100 µM | CAKI-1 > 100 µM | COLO 205 > 100 µM | HT-29 > 100 µM | IGROV-1 > 100 µM | KM12 > 100 µM | MOLT-4 53.2 µM | NCI-H522 25.1 µM | OVCAR-8 > 100 µM | SF-295 > 100 µM | SK-MEL-28 > 100 µM | SK-MEL-5 49.1 µM | SN12C 96.4 µM | SR 32.7 µM

C/C=C(\NC(=O)C(CCCCN)NC(=O)C(C)NC(=O)C1CSC(C)C(NC(=O)C2CSCC(NC(=O)C(C)NC(=O)C(N)C(C)CC)C(=O)NC(CCCCN)C(=O)NC(Cc3ccccc3)C(=O)NC(CC(C)C)C(=O)N2)C(=O)N2CCCC2C(=O)NCC(=O)N1)C(=O)NCC(=O)NC1CSCC2NC(=O)C(Cc3ccc(O)cc3)NC(=O)C(CSC=CNC2=O)NC(=O)C(CC(N)=O)NC(=O)C(Cc2ccccc2)NC1=O (stereo unspecified)
inactive: ACHN 65 µM | COLO 205 > 100 µM | HT-29 > 100 µM | IGROV-1 > 100 µM | KM12 66.2 µM | MOLT-4 > 100 µM | OVCAR-8 > 100 µM | SF-295 > 100 µM | SK-MEL-28 78.3 µM | SK-MEL-5 19.6 µM | SN12C > 100 µM | SR > 100 µM

Nc1nnc(N)n1N
inactive: ACHN > 100 µM | CAKI-1 > 100 µM | COLO 205 > 100 µM | HOP-92 > 100 µM | HT-29 > 100 µM | IGROV-1 > 100 µM | KM12 > 100 µM | MOLT-4 > 100 µM | NCI-H522 > 100 µM | SF-295 > 100 µM | SK-MEL-28 > 100 µM | SK-MEL-5 > 100 µM | SR > 100 µM

COC1C(CN[N+](=O)CC2OC3OC(C)(C)OC3C2OC)OC2OC(C)(C)OC21 (stereo unspecified)
inactive: A498 > 100 µM | ACHN > 100 µM | CAKI-1 > 100 µM | COLO 205 > 100 µM | HOP-92 > 100 µM | HT-29 > 100 µM | IGROV-1 > 100 µM | KM12 > 100 µM | MOLT-4 > 100 µM | OVCAR-8 > 100 µM | SF-295 > 100 µM | SK-MEL-28 > 100 µM | SK-MEL-5 > 100 µM | SN12C > 100 µM

CN1c2ccccc2N(C)C2C1N(C)c1ccccc1N2C (stereo unspecified)
inactive: A498 31.6 µM | ACHN 40.1 µM | CAKI-1 15.1 µM | COLO 205 10.8 µM | HOP-92 10.4 µM | HT-29 7.78 µM | IGROV-1 20.7 µM | KM12 16 µM | MOLT-4 2.86 µM | NCI-H522 4.73 µM | OVCAR-8 18.6 µM | SF-295 31.3 µM | SK-MEL-28 4.69 µM | SK-MEL-5 3.72 µM | SN12C 20 µM

COC(=O)c1ccc(CS(=O)(=O)c2ccccc2)cc1
inactive: ACHN > 100 µM | CAKI-1 > 100 µM | COLO 205 59.4 µM | HOP-92 > 100 µM | HT-29 40.8 µM | IGROV-1 > 100 µM | KM12 51.9 µM | MOLT-4 > 100 µM | OVCAR-8 > 100 µM | SF-295 61.7 µM | SK-MEL-28 > 100 µM | SK-MEL-5 55.8 µM | SN12C > 100 µM | SR 45 µM

N#Cc1cccc(N2C(=O)c3ccc(C(=O)c4ccc5c(c4)C(=O)N(c4cccc(C#N)c4)C5=O)cc3C2=O)c1
inactive: A498 > 100 µM | CAKI-1 > 100 µM | COLO 205 > 100 µM | HOP-92 59 µM | HT-29 > 100 µM | IGROV-1 > 100 µM | KM12 > 100 µM | MOLT-4 > 100 µM | NCI-H522 > 100 µM | OVCAR-8 > 100 µM | SF-295 > 100 µM | SK-MEL-5 > 100 µM | SN12C > 100 µM

COc1cc2c(cc1O)[C@H](C)C(c1ccc(Cl)cc1)O2 (stereo partly specified)
inactive: A498 11.9 µM | ACHN 14.1 µM | CAKI-1 11.6 µM | COLO 205 27.2 µM | HOP-92 17.3 µM | HT-29 30.9 µM | IGROV-1 22.5 µM | KM12 25.2 µM | MOLT-4 15.3 µM | NCI-H522 13.3 µM | OVCAR-8 > 10 µM | SF-295 31 µM | SK-MEL-28 28.6 µM | SK-MEL-5 16.3 µM

Brc1ccc(C[N+]23CN4CN(CN(C4)C2)C3)cc1
inactive: ACHN 44.6 µM | COLO 205 26.3 µM | IGROV-1 > 100 µM | KM12 > 100 µM | MOLT-4 20.5 µM | NCI-H522 17.1 µM | OVCAR-8 28.3 µM | SF-295 > 100 µM | SK-MEL-28 31.3 µM | SN12C 24 µM | SR > 10 µM
